{"source": "patent US7868147B2", "about": "“Fluorescent probe” (Sekisui Medical Co., Ltd., priority 2003, dated 2011)", "key": {"[1]": {"experiment": "Maximum excitation and fluorescence wavelength of fluorescein derivatives", "type": "physicochemical", "conditions": "measured in 0.1 N aqueous NaOH", "source_text": "(§1) Correlation between fluorescence quantum yield and the oxidation potential of the benzene ring moiety of each compound prepared above was studied. As clearly shown by the results in the figure, the fluorescence quantum yield of each compound changed depending on the oxidation potential of the benzene ring moiety. In an alkaline solution at pH 13, the OH group of the xanthene ring dissociates its proton to become an anion, and under this condition, the compound whose oxidation potential is 1.20V or lower became almost non-fluorescent, whereas the compound whose oxidation potential is 1.65V or higher emitted fluorescence with a quantum yield of almost 1. Between the two values, it was observed that the quantum yield decreases according to the decrease in the oxidation potential. An oxidation potential of the benzene ring under the acidic condition at pH 3.4, which has an influence on fluorescence, is different from that under a basic condition, i.e., the compound whose oxidation potential is 1.60V or lower is almost no fluorescent, whereas the compound whose oxidation potential is 1.90V or higher emitted fluorescence with a quantum yield of almost 0.3. It is known that the OH group of the xanthene ring is protonated at pH 3.4, and under this condition, the quantum yield of Fluorescein is about 0.3."}, "[2]": {"experiment": "Oxidation potential of the benzene ring moiety (PET donor)", "type": "physicochemical", "conditions": "0.1 M acetonitrile containing tetrabutylammonium perchlorate (TBAP)", "source_text": "For the selection of a combination of R^1 and R^2, information of the electron density of the benzene ring to which they bind may be utilized. Information of the electron density of the benzene ring is easily available, for example, by calculating oxidation potential of said benzene ring according to a quantum chemical means. A reduction of the oxidation potential of said benzene ring means an increase of the electron density of said benzene ring, which corresponds to an elevation of HOMO orbital energy. For example, HOMO energy of said benzene ring moiety can be determined by a density functional theory (B3LYP/6-31G(d)). All the oxidation potentials described in the specification are indicated as values obtained with a saturated calomel electrode as a reference electrode, of which base line is different by about 0.24 V from that used for values obtained with a silver/silver nitrate electrode (Ag/Ag^+) as a reference electrode.\nas §1"}, "[3]": {"experiment": "Fluorescence quantum yield", "type": "physicochemical", "conditions": "for Φfl (pH 3.4): pH 3.4, xanthene OH protonated; for Φfl (pH 13): pH 13, xanthene OH deprotonated", "source_text": "as §1"}, "[4]": {"conditions": "literature (Lindqvist et al., 1966); cited from earlier work"}, "[5]": {"experiment": "Fluorescence quantum yield", "type": "physicochemical", "conditions": "100 mM sodium phosphate buffer"}}, "data": [{"compound": "COc1ccccc1-c1c2ccc(=O)cc-2oc2cc(O)ccc12", "note": "[Compound 4]", "values": [{"measurement": "Maximum excitation wavelength", "setting": "[1]", "result": 494, "unit": "nm"}, {"measurement": "Maximum fluorescence wavelength", "setting": "[1]", "result": 515, "unit": "nm"}, {"measurement": "Oxidation potential", "setting": "[2]", "result": 1.75, "unit": "V vs SCE"}, {"measurement": "Φfl (pH 3.4)", "setting": "[3]", "result": 0.076}, {"measurement": "Φfl (pH 13)", "setting": "[3]", "result": 0.860}]}, {"compound": "O=c1ccc2c(-c3ccccc3)c3ccc(O)cc3oc-2c1", "note": "[6-Hydroxy-9-phenylfluorone]", "values": [{"measurement": "fluorescence quantum yield relative to fluorescein", "setting": "[4]", "result": "lower fluorescence quantum yield"}]}, {"compound": "COC(=O)CCCCOc1ccc(-c2c3ccc(=O)cc-3oc3cc(O)ccc23)c(C)c1", "note": "[Compound 17]", "values": [{"measurement": "Φfl", "setting": "[5]; pH 9.0", "result": 0.82}]}, {"compound": "COC(=O)COc1ccc(-c2c3ccc(=O)cc-3oc3cc(O)ccc23)c(C)c1", "note": "[Compound 15]", "values": [{"measurement": "Φfl", "setting": "[5]; pH 9.0", "result": 0.87}]}, {"compound": "Cc1ccc(-c2c3ccc(=O)cc-3oc3cc(O)ccc23)c(C)c1", "note": "[Compound 2]", "values": [{"measurement": "Maximum excitation wavelength", "setting": "[1]", "result": 491, "unit": "nm"}, {"measurement": "Maximum fluorescence wavelength", "setting": "[1]", "result": 510, "unit": "nm"}, {"measurement": "Oxidation potential", "setting": "[2]", "result": 2.08, "unit": "V vs SCE"}, {"measurement": "Φfl (pH 3.4)", "setting": "[3]", "result": 0.307}, {"measurement": "Φfl (pH 13)", "setting": "[3]", "result": 0.865}]}, {"compound": "COc1ccc(C)cc1-c1c2ccc(=O)cc-2oc2cc(O)ccc12", "note": "[Compound 6]", "values": [{"measurement": "Maximum excitation wavelength", "setting": "[1]", "result": 494, "unit": "nm"}, {"measurement": "Maximum fluorescence wavelength", "setting": "[1]", "result": 514, "unit": "nm"}, {"measurement": "Oxidation potential", "setting": "[2]", "result": 1.57, "unit": "V vs SCE"}, {"measurement": "Φfl (pH 3.4)", "setting": "[3]", "result": 0.004}, {"measurement": "Φfl (pH 13)", "setting": "[3]", "result": 0.500}]}, {"compound": "Cc1ccc(C)c(-c2c3ccc(=O)cc-3oc3cc(O)ccc23)c1", "note": "[Compound 3]", "values": [{"measurement": "Maximum excitation wavelength", "setting": "[1]", "result": 491, "unit": "nm"}, {"measurement": "Maximum fluorescence wavelength", "setting": "[1]", "result": 510, "unit": "nm"}, {"measurement": "Oxidation potential", "setting": "[2]", "result": 1.98, "unit": "V vs SCE"}, {"measurement": "Φfl (pH 3.4)", "setting": "[3]", "result": 0.319}, {"measurement": "Φfl (pH 13)", "setting": "[3]", "result": 0.887}]}, {"compound": "COc1ccc(-c2c3ccc(=O)cc-3oc3cc(O)ccc23)c(OC)c1", "note": "[Compound 7]", "values": [{"measurement": "Maximum excitation wavelength", "setting": "[1]", "result": 494, "unit": "nm"}, {"measurement": "Maximum fluorescence wavelength", "setting": "[1]", "result": 513, "unit": "nm"}, {"measurement": "Oxidation potential", "setting": "[2]", "result": 1.44, "unit": "V vs SCE"}, {"measurement": "Φfl (pH 3.4)", "setting": "[3]", "result": 0.001}, {"measurement": "Φfl (pH 13)", "setting": "[3]", "result": 0.200}]}, {"compound": "Cc1ccccc1-c1c2ccc(=O)cc-2oc2cc(O)ccc12", "note": "[Compound 1]", "values": [{"measurement": "Maximum excitation wavelength", "setting": "[1]", "result": 491, "unit": "nm"}, {"measurement": "Maximum fluorescence wavelength", "setting": "[1]", "result": 510, "unit": "nm"}, {"measurement": "Oxidation potential", "setting": "[2]", "result": 2.19, "unit": "V vs SCE"}, {"measurement": "Φfl (pH 3.4)", "setting": "[3]", "result": 0.319}, {"measurement": "Φfl (pH 13)", "setting": "[3]", "result": 0.847}]}, {"compound": "COc1ccc(OC)c(-c2c3ccc(=O)cc-3oc3cc(O)ccc23)c1", "note": "[Compound 8]", "values": [{"measurement": "Maximum excitation wavelength", "setting": "[1]", "result": 494, "unit": "nm"}, {"measurement": "Maximum fluorescence wavelength", "setting": "[1]", "result": 512, "unit": "nm"}, {"measurement": "Oxidation potential", "setting": "[2]", "result": 1.26, "unit": "V vs SCE"}, {"measurement": "Φfl (pH 3.4)", "setting": "[3]", "result": 0.000}, {"measurement": "Φfl (pH 13)", "setting": "[3]", "result": 0.010}]}, {"compound": "COc1ccc(-c2c3ccc(=O)cc-3oc3cc(OP(=O)(O)O)ccc23)c(C)c1", "note": "[Compound 11]", "values": [{"measurement": "Φfl", "setting": "[5]; pH 7.4", "result": 0.029}]}, {"compound": "COC(=O)COc1ccc(-c2c3ccc(=O)cc-3oc3cc(O[C@@H]4OC(COC(C)=O)[C@H](OC(C)=O)C(OC(C)=O)C4OC(C)=O)ccc23)c(C)c1", "note": "(stereo partly shown) [Compound 16]", "values": [{"measurement": "Φfl", "setting": "[5]; pH 7.4", "result": 0.069}]}, {"compound": "COc1ccc(-c2c3ccc(=O)cc-3oc3cc(O)ccc23)c(C)c1", "note": "[Compound 5]", "values": [{"measurement": "Maximum excitation wavelength", "setting": "[1]", "result": 492, "unit": "nm"}, {"measurement": "Maximum fluorescence wavelength", "setting": "[1]", "result": 509, "unit": "nm"}, {"measurement": "Oxidation potential", "setting": "[2]", "result": 1.66, "unit": "V vs SCE"}, {"measurement": "Φfl (pH 3.4)", "setting": "[3]", "result": 0.010}, {"measurement": "Φfl (pH 13)", "setting": "[3]", "result": 0.840}]}, {"compound": "COC(=O)CCCCOc1ccc(-c2c3ccc(=O)cc-3oc3cc(O[C@@H]4OC(COC(C)=O)[C@H](OC(C)=O)C(OC(C)=O)C4OC(C)=O)ccc23)c(C)c1", "note": "(stereo partly shown) [Compound 18]", "values": [{"measurement": "Φfl", "setting": "[5]; pH 7.4", "result": 0.005}]}]}
